The source of these data is paper PMC9000575, “Solution Equilibrium Studies on Salicylidene Aminoguanidine Schiff Base Metal Complexes: Impact of the Hybridization with L-Proline on Stability, Redox Activity and Cytotoxicity” (Molecules, 2022).

Each structure is given as a SMILES string. Values after ≈ are worked out from the molar mass of the structure shown.

Data set [1] can be described thus: thermodynamic solubility at pH 7.4. The format is physicochemical. Conditions: 10 mM HEPES buffer, aqueous buffer, thermodynamic from solid, pH 7.4, T = 25 °C, read-out: thermodynamic solubility at pH 7.4 (S7.4).
A short description of data set [2]: stability constants of Cu(II) complexes by pH-potentiometry. The format is physicochemical. Conditions: for logβ [CuLH−1] / logβ [CuLH−2]− / logβ [CuL]+: 25 °C, I = 0.10 M (KCl); for pCu(II) (−log[Cu(II)]): calculated at pH 7.4, cCu(II) = 1 μM, cligand = 10 μM. The procedure: Interaction between Pro-SISC-Me and Cu(II) ions could be studied by pH-potentiometry in water due to the adequate solubility of the species (Figure S7b), and the calculated overall stability constants are collected in Table 2. Based on the titration data, formation of only mono-ligand complexes ([CuL]^+, [CuLH−1], [CuLH−2]^−) was observed even at higher metal-to-ligand ratios. Stability constants for the complexes formed with the more lipophilic SISC were determined in the presence of 30% (v/v) DMSO/H2O (Figure S7a), and for the Cu(II)—Pro-SISC-Me system was studied as well in the same solvent system for comparison (Table 2). […] In the case of SISC, the stability constant could not be obtained for the [CuLH−2]^− species as in its formation pH range (>8) precipitation appeared in the solution. The thiosemicarbazone analogues (STSC and Pro-STSC-Me) also form exclusively mono-ligand complexes ([CuLH]^+, [CuL], [CuLH−1]^−), however, protonated complexes could not be found for SISC and Pro-SISC-Me.
(§1) The pH-potentiometric measurements for the determination of the proton dissociation constants of the ligands and the overall stability constants of the metal complexes were carried out at 25.0 ± 0.1 °C in water or in 30% (v/v) DMSO/H2O as solvent and at an ionic strength of 0.10 M (KCl). The titrations were performed with carbonate-free KOH solution of known concentration (0.10 M). The concentrations of the base and the HCl were determined by pH-potentiometric titrations. An Orion 710A pH-meter equipped with a Metrohm combined electrode (type 6.0234.100), and a Metrohm 665 Dosimat burette were used for the titrations. […] The average water ionization constant pKw was 13.76 ± 0.05 (water) or 14.52 ± 0.05 (30% (v/v) DMSO/H2O). The pH-potentiometric titrations were performed in the pH range 2.0–12.5. The initial volume of the samples was 10.0 mL. The ligand concentration was 2 mM and metal ion-to-ligand ratios of 1:1–1:3 were used. The accepted fitting of the titration curves was always less than 0.01 mL. Argon was always passed over the solutions during the titrations. The exact concentration of the ligand stock solutions together with the proton dissociation constants were determined by pH-potentiometric titrations with the use of the computer program HYPERQUAD [44]. It was also utilized to establish the stoichiometry of the complexes and to calculate the stability constants (β(MpLqHr)). β(MpLqHr) is defined for the general equilibrium pM + qL + rH ⇋ MpLqHr as β(MpLqHr) = [MpLqHr]/[M]^p[L]^q[H]^r, where M denotes the metal ion and L the completely deprotonated ligand. In all calculations exclusively, titration data were used from experiments in which no precipitate was visible in the reaction mixture.

For data set [3], the system named is Colo-320 (doxorubicin-resistant) human colon adenocarcinoma cells. Kind of data set: MTT cytotoxicity test. The data set is classed as cell-based. The settings on record: Homo sapiens, Colo-320, 72 h. The procedure: (§2) All cell culture reagents were obtained from Sigma-Aldrich and plastic ware from Sarstedt (Nümbrecht, Germany). Human colon Colo-205 (chemo-sensitive) and Colo-320 (doxorubicin-resistant) adenocarcinoma and MRC-5 human embryonal lung fibroblast cell lines were purchased from LGC Promochem, Teddington, UK. The colon adenocarcinoma cells were cultured in Roswell Park Memorial Institute (RPMI) 1640 medium supplemented with 10% heat-inactivated fetal bovine serum, 2 mM L-glutamine, 1 mM sodium pyruvate and 100 mM HEPES. The MRC-5 cell line was cultured in Eagle’s Minimal Essential Medium (EMEM, Sigma-Aldrich, St. Louis, MO, USA) supplemented with a non-essential amino acid (NEAA) mixture (Sigma-Aldrich, St. Louis, MO, USA) a selection of vitamins, 10% heat-inactivated foetal bovine serum (FBS), 2 mM L-glutamine (Sigma-Aldrich, St. Louis, MO, USA), 1 mM Na-pyruvate (Sigma-Aldrich, St. Louis, MO, USA), nystatin (Sigma-Aldrich, St. Louis, MO, USA) and a penicillin-streptomycin mixture (Sigma-Aldrich, St. Louis, MO, USA) in concentrations of 100 U/L and 10 mg/L, respectively. The cells were incubated at 37 °C, in a 5% CO2, 95% air atmosphere. All cell lines were detached with Trypsin-Versene® (EDTA) solution for 5 min at 37 °C.
(§3) The tested compounds were dissolved in 90% (v/v) DMSO/H2O using 8 mM concentration, […] in the final samples the DMSO content was always lower than 1%. Then stock solutions were diluted in complete culture medium, and two-fold serial dilutions of compounds were prepared in 100 μL of the medium, horizontally. The semi-adherent colon adenocarcinoma cells were treated with Trypsin-Versene (EDTA) solution. They were adjusted to a density of 1 × 10^4 cells in 100 μL of RPMI 1640 or EMEM medium and were added to each well, with the exception of the medium control wells. The final volume of the wells containing compounds and cells was 200 μL. The plates containing Colo-205, Colo-320 or MRC-5 cells were incubated at 37 °C for 72 h; at the end of the incubation period, 20 μL of MTT solution (from a stock solution of 5 mg/mL) were added to each well. After incubation at 37 °C for 4 h, 100 μL of SDS solution (10% in 0.01 M HCI) were added to each well, and the plates were further incubated at 37 °C overnight. Cell growth was determined by measuring the optical density (OD) at 540/630 nm with a Multiskan EX plate reader (Thermo Labsystems, Cheshire, WA, USA). Inhibition of the cell growth (expressed as IC50: inhibitory concentration that reduces by 50% the growth of the cells exposed to the tested compounds) was determined from the sigmoid curve where 100 − ((ODsample − ODmedium control)/(ODcell control − ODmedium control)) × 100 values were plotted against the logarithm of compound concentrations. Curves were fitted by GraphPad Prism software (2021, Graphpad Software, San Diego, CA, USA) using the sigmoidal dose–response model (comparing variable and fixed slopes). The IC50 values were obtained from at least three independent experiments.

Data set [4] concerns Colo-205 human colon adenocarcinoma cells. Kind of data set: MTT cytotoxicity test. The data set is classed as cell-based. Conditions: Homo sapiens, Colo-205, 72 h. On the procedure:
as §2, §3

A short description of data set [5]: stability constants of Fe(II) complexes by pH-potentiometry. Conditions: 30% (v/v) DMSO/H2O; for logβ [Fe(II)LH−1] / logβ [Fe(II)LH−2]− / logβ [Fe(II)L]+: 25 °C, I = 0.10 M (KCl), anaerobic; for pFe(II) (−log[Fe(II)]): calculated at pH 7.4, cFe = 1 μM, cligand = 10 μM. The data set is classed as physicochemical. On the procedure:
Complexation with Fe(II) was studied under strictly anaerobic conditions. […] Aside from the better solubility of the Pro-SISC-Me complexes, the two ligands behaved similarly and the difference between their Fe(II)-binding efficacy was minor.
as §1

On to `Cc1cc(C=NNC(=N)N)c(O)c(CN2CCCC2C(=O)O)c1` (centres unmarked) [Pro-SISC-Me], for which, in data set [1], the solubility (thermodynamic) is approximately 10 mM (≈ 3190 µg/mL). For the same compound, in data set [2] (30% DMSO), the “logβ [CuLH−1]” value is 6.57 ± 0.05, the “logβ [CuLH−2]−” value is −4.42 ± 0.06, the “logβ [CuL]+” value is on record as 15.08 ± 0.02 and the “pCu(II) (−log[Cu(II)])” value is 13.39. For the same compound, in data set [2] (H2O), the “logβ [CuLH−1]” value is recorded as 6.96 ± 0.03, the “logβ [CuLH−2]−” value is listed as −3.22 ± 0.04, the “logβ [CuL]+” value is 14.99 ± 0.02 and the “pCu(II) (−log[Cu(II)])” value was 13.59. Also, in data set [2] (based on the stability constants), the “fraction of [CuL]+ at pH 7.4” value is reported as 100%. In data set [3], this compound had an IC50 of more than 80 µM. The IC50 in data set [4] was more than 80 µM. Moreover, in data set [5], the “logβ [Fe(II)LH−1]” value is −1.08 ± 0.05, the “logβ [Fe(II)LH−2]−” value was less than −11, the “logβ [Fe(II)L]+” value is 6.83 ± 0.04 and the “pFe(II) (−log[Fe(II)])” value is 6.1.

As to `N=C(N)NN=Cc1ccccc1O` [SISC, 2-(2-hydroxybenzylidene)hydrazinecarboximidamide], the thermodynamic solubility in data set [1] was approximately 2 mM (≈ 356 µg/mL). In data set [2] (30% DMSO), the “logβ [CuLH−1]” value turned out to be 6.28 ± 0.07, the “logβ [CuL]+” value came out at 14.74 ± 0.02 and the “pCu(II) (−log[Cu(II)])” value was 12.08. Moreover, in data set [3], the IC50 is more than 80 µM. The 50% inhibitory concentration (IC50) in data set [4] was more than 80 µM. Also, in data set [5], the “logβ [Fe(II)LH−1]” value is given as −0.73 ± 0.07, the “logβ [Fe(II)LH−2]−” value was −8.94 ± 0.08, the “logβ [Fe(II)L]+” value is listed as 7.20 ± 0.06 and the “pFe(II) (−log[Fe(II)])” value was 6.0.
